# Reference: patent US8173682B2, “Substituted pyridones as inhibitors of poly(ADP-ribose) polymerase (PARP)” (Aventis Pharmaceuticals Inc., priority 2004, dated 2012)
# Structures can show the parent of a compound that is named as a salt.
# Target: T1, recombinant human PARP (PARP1) (Homo sapiens, UniProt P09874)
# T1 construct: Full length human PARP (PARP1) is assembled from PCR fragments; His6 tag with TEV site, from the pFastBac-HTb vector (own knowledge of the vector); made in house; host or cells: insect cells, baculovirus (Bac-to-Bac, Gibco-BRL)
# T1 sequence (P09874 whole entry, the tested form may be a part): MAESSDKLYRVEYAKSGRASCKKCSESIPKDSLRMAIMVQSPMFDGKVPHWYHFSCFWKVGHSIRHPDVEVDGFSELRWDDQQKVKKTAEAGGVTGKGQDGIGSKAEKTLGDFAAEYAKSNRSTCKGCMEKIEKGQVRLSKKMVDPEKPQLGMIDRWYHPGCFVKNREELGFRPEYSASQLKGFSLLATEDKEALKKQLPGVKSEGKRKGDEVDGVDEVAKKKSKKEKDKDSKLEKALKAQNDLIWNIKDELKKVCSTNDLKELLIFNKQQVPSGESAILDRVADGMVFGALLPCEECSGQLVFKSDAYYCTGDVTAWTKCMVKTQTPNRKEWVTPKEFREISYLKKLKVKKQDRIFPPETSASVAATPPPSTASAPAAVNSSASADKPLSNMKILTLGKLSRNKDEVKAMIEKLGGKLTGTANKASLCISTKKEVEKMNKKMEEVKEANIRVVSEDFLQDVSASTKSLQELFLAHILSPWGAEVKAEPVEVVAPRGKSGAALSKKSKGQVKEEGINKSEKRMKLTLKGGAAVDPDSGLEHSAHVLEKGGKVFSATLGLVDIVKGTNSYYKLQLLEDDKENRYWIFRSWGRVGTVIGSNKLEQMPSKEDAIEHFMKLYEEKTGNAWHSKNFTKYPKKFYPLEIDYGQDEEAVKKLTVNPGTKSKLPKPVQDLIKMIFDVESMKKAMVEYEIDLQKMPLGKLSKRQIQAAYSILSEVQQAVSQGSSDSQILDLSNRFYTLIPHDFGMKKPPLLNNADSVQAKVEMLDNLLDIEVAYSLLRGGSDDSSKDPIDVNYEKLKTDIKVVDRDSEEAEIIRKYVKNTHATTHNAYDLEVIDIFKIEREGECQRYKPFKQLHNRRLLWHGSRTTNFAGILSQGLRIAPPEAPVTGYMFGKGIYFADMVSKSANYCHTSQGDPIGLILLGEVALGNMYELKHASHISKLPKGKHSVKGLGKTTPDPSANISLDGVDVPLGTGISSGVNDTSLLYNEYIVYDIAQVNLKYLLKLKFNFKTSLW
# Experiment: PARP enzyme assay, Method A (radioactivity or 'ELISA' enzyme assay with partially purified enzyme)
# Assay type: biochemical
# Details: recombinant human PARP preparation, radioactive or ELISA enzyme assay
# Procedure, shortened: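 Partially purified recombinant full-length His-tagged human PARP1, baculovirus-expressed. Radioactive format: 100 μg/mL sonicated DNA, 100 μg/mL histones, 100 mM Tris pH 8.0, 10 mM MgCl2, 200 μM labeled NAD, 10 min 37 °C or 60 min RT, TCA-precipitated counts. ELISA format: 250 μM NAD plus biotin-NAD on histone plates, TMB A450.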
row,Compound,IC50 [µM]
1,"CCc1cc(-c2ccc(S(=O)(=O)N3CCOCC3)s2)c(C)[nH]c1=O [Example 86, 3-Ethyl-6-methyl-5-[5-(morpholine-4-sulfonyl)thiophen-2-yl]-1H-pyridin-2-one]",4.5
2,"CCc1cc(-c2ccc(S(=O)(=O)N3CCN(CCO)CC3)s2)c(C)[nH]c1=O [Example 91, 3-Ethyl-5-{5-[4-(2-hydroxyethyl)piperazine-1-sulfonyl]thiophen-2-yl}-6-methyl-1H-pyridin-2-one hydrochloride]",2.9
3,"CCc1cc(-c2ccc(S(=O)(=O)NCCCN(C)C)s2)c(C)[nH]c1=O [Example 34, 5-(5-Ethyl-2-methyl-6-oxo-1,6-dihydropyridin-3-yl)thiophene-2-sulfonic acid (3-dimethylaminopropyl)amide hydrochloride]",4.5
4,"CCc1cc(-c2ccc(S(=O)(=O)N3CCC(n4ccnc4)CC3)s2)c(C)[nH]c1=O [Example 79, 3-Ethyl-5-[5-(4-imidazol-1-yl)piperidine-1-sulfonyl)thiophen-2-yl]-6-methyl-1H-pyridin-2-one hydrochloride]",0.45
5,"CCc1cc(-c2ccc(CN3CCC[C@H]3COC)s2)c(C)[nH]c1=O [Example 191, 3-Ethyl-5-{5-[(S)-2-methoxymethylpyrrolidin-1-ylmethyl]thiophen-2-yl}-6-methyl-1H-pyridin-2-one hydrochloride]",0.8
6,"CCc1cc(-c2ccc(S(=O)(=O)N(C)Cc3cc(F)cc(F)c3)s2)c(C)[nH]c1=O [Example 29, 5-(5-Ethyl-2-methyl-6-oxo-1,6-dihydropyridin-3-yl)thiophene-2-sulfonic acid (3,5-difluorobenzyl)methylamide]",0.57
7,"CCc1cc(-c2ccc(CNCc3cccc(C)c3)s2)c(C)[nH]c1=O [Example 165, 5-{5-[(3-Methylbenzylamino)methyl]thiophen-2-y}]-3-ethyl-6-methyl-1H-pyridin-2-one hydrochloride]",0.98
8,"CCc1cc(-c2ccc(S(=O)(=O)N(C)CC(O)c3ccccc3)s2)c(C)[nH]c1=O (stereo not shown) [Example 37, 5-(5-Ethyl-2-methyl-6-oxo-1,6-dihydropyridin-3-yl)thiophene-2-sulfonic acid (2-hydroxy-2-phenylethyl)methylamide]",2
9,"CCc1cc(-c2nnco2)c(C)[nH]c1=O [Example 14, 3-Ethyl-6-methyl-5-(1,3,4-oxadiazol-2-yl)-1H-pyridin-2-one]",0.56
10,"CCc1cc(-c2ccc(S(=O)(=O)N3CCN(Cc4ccc5c(c4)OCO5)CC3)s2)c(C)[nH]c1=O [Example 104, 5-[5-(4-1,3-Benzodioxol-5-ylmethylpiperazine-1-sulfonyl)-thiophen-2-yl]-3-ethyl-6-methyl-1H-pyridin-2-one hydrochloride]",2.5
11,"CCc1cc(-c2ccc(S(=O)(=O)NC3CCN(Cc4ncc[nH]4)CC3)s2)c(C)[nH]c1=O [Example 83, 5-[5-Ethyl-2-methyl-6-oxo-1,6-dihydropyridin-3-yl]thiophene-2-sulfonic acid (1-imidazol-2-yl)methyl(piperidin-4-yl)]amide dihydrochloride]",2.8
12,"CCc1cc(-c2ccc(CNCc3ccccc3)s2)c(C)[nH]c1=O [Example 157, 5-[5-(Benzylamino-methyl)-thiophen-2-yl]-3-ethyl-6-methyl-1H-pyridin-2-one hydrochloride]",0.6
13,"CCc1cc(-c2ccc(CNCCc3ccccn3)s2)c(C)[nH]c1=O [Example 141, 3-Ethyl-6-methyl-5-{5-[(2-pyridin-2-ylethylamino)methyl]thiophen-2-yl}-1H-pyridin-2-one dihydrochloride]",0.54
14,"CCc1cc(-c2ccc(CNCc3ccncc3)s2)c(C)[nH]c1=O [Example 152, 3-Ethyl-6-methyl-5-{5-{[(pyridin-4-ylmethyl)-amino]-methyl-thiophen-2-yl)-1H-pyridin-2-one dihydrochloride]",0.83
15,"CCc1cc(-c2ccc(CN3CCC(c4ccccc4)CC3)s2)c(C)[nH]c1=O [Example 184, 3-Ethyl-6-methyl-5-[5-(4-phenylpiperidin-1-ylmethyl)thiophen-2-yl]-1H-pyridin-2-one hydrochloride]",2.7
16,"CCc1cc(-c2ccc(CN3CCOCC3)c(C#N)c2)c(C)[nH]c1=O [Example 2, 5-(5-Ethyl-2-methyl-6-oxo-1,6-dihydropyridin-3-yl)-2-(morpholin-4-yl)methylbenzonitrile]",4.5
17,"CCc1cc(-c2ccc(CN(C)C3CCN(C)C3)s2)c(C)[nH]c1=O (stereo not shown) [Example 133, 5-{5-[Methyl(1-methylpyrrolidin-3-yl)amino-methyl]thiophen-2-yl}-3-ethyl-6-methyl-1H-pyridin-2-one dihydrochloride]",2.8

row,Compound,IC50 [µM]
1,"CCc1cc(-c2ccc(S(=O)(=O)N3CCC(N4CCCCC4)CC3)o2)c(C)[nH]c1=O [Example 51, 3-Ethyl-6-methyl-5-[5-(4-piperidin-1-yl)piperidine-1-sulfonylfuran-2-yl]-1H-pyridin-2-one hydrochloride]",0.22
2,"CCc1cc(-c2ccc(CNCCOC)s2)c(C)[nH]c1=O [Example 138, 3-Ethyl-5-{5-[(2-methoxyethylamino)-methyl]thiophen-2-yl}-6-methyl-1H-pyridin-2-one hydrochloride]",0.63
3,"CCc1cc(-c2ccc(CN3CCC(F)C3)s2)c(C)[nH]c1=O (stereo not shown) [Example 173, 5-{5-[(3-Fluoropyrrolidin-1-ylmethyl)(thiophen-2-yl)-3-ethyl-6-methyl-1H-pyridin-2-one hydrochloride]",0.22
4,"CCc1cc(-c2ccc(S(=O)(=O)NCC3CCCO3)s2)c(C)[nH]c1=O (stereo not shown) [Example 112, 5-(5-Ethyl-2-methyl-6-oxo-1,6-dihydropyridin-3-yl)thiophene-2-sulfonic acid (tetrahydrofuran-2-ylmethyl)amide]",1.2
5,"CCc1cc(-c2ccc(CNC3Cc4ccccc4C3)s2)c(C)[nH]c1=O [Example 156, 3-Ethyl-5-[5-(indan-2-ylaminomethyl)-thiophen-2-yl]-6-methyl-1H-pyridin-2-one hydrochloride]",0.44
6,"CCc1cc(-c2ccc(CNC(C)C(C)C)s2)c(C)[nH]c1=O (stereo not shown) [Example 147, 5-{5-[(3-methylbut-2-ylamino)methyl]thiophen-2-yl}-3-ethyl-6-methyl-1H-pyridin-2-one hydrochloride]",0.49
7,"CCc1cc(-c2ccc(S(=O)(=O)NCCCN3CCCC3=O)s2)c(C)[nH]c1=O [Example 68, 5-[5-Ethyl-2-methyl-6-oxo-1,6-dihydropyridin-3-yl]thiophene-2-sulfonic acid [3-(2-oxopyrrolidin-1-yl)propyl]amide]",1.9
8,"CCc1cc(-c2ncno2)c(C)[nH]c1=O [Example 18, 3-Ethyl-6-methyl-5-(1,2,4-oxadiazol-5-yl)-1H-pyridin-2-one]",0.65
9,"CCc1cc(-c2ccc(S(=O)(=O)N3CCN(CCN4CCCCC4)CC3)s2)c(C)[nH]c1=O [Example 57, 3-Ethyl-6-methyl-5-{5-[4-(2-piperidin-1-yl)ethylpiperizine-1-sulfonyl]thiophen-2-yl}-1H-pyridin-2-one dihydrochloride]",5.7
10,"CCc1cc(-c2ccc(CNC(=O)CN(C)C)s2)c(C)[nH]c1=O [Example 177, 2-Dimethylamino-N-[5-(5-ethyl-2-methyl-6-oxo-1,6-dihydropyridin-3-yl)thiophen-2-ylmethyl]acetamide hydrochloride]",0.49
11,"CCc1cc(-c2ccc(S(=O)(=O)N3CCN(c4ccccn4)CC3)s2)c(C)[nH]c1=O [Example 116, 3-Ethyl-6-methyl-5-{5-[(4-pyridin-2-yl)piperazine-1-sulfonyl]thiophen-2-yl}-1H-pyridin-2-one hydrochloride]",0.45
12,"CCc1cc(-c2ccc(CNCc3ccccc3OC)s2)c(C)[nH]c1=O [Example 187, 3-Ethyl-5-{5-[(2-methoxybenzylamino)methyl]thiophen-2-yl}-6-methyl-1H-pyridin-2-one hydrochloride]",0.4
13,"CCc1cc(-c2ccc(CN3CCC(OC)C3)s2)c(C)[nH]c1=O (stereo not shown) [Example 174, 3-Ethyl-5-{5-[(3-methoxypyrrolidin-1-ylmethyl)(thiophen-2-yl)-6-methyl-1H-pyridin-2-one hydrochloride]",1.3
14,"CCc1cc(-c2ccc(S(=O)(=O)N3CCNCC3)s2)c(C)[nH]c1=O [Example 94, 3-Ethyl-6-methyl-5-[5-(piperazine-1-sulfonyl)thiophen-2-yl]-1H-pyridin-2-one hydrochloride]",1.4
15,"CCc1cc(-c2ccc(CN3CCC(Cc4ccccc4)CC3)s2)c(C)[nH]c1=O [Example 183, 5-[5-(4-Benzylpiperidin-1-ylmethyl)thiophen-2-yl]-3-ethyl-6-methyl-1H-pyridin-2-one hydrochloride]",2.4
16,"CCc1cc(-c2ccc(CN3CCC(N4CCCC4)CC3)s2)c(C)[nH]c1=O [Example 160, 3-Ethyl-6-methyl-5-[5-(4-pyrrolidin-1-ylpiperidin-1-ylmethyl)-thiophen-2-yl]1-1H-pyridin-2-one dihydrochloride]",1.7
17,"CCc1cc(-c2ccc(CNC3CC3)s2)c(C)[nH]c1=O [Example 142, 5-(5-Cyclopropylaminomethyl-thiophen-2-yl)-3-ethyl-6-methyl-1H-pyridin-2-one hydrochloride]",2.1
